We go through 25 compounds from patent publication US11897862B2 (Gilead Sciences, Inc., priority 2022, dated 2024).

One experiment addresses T1, IKZF1 (Homo sapiens, UniProt Q13422+Q96SW2).
T1 construct: expressed in transfected cells
The experiment can be described thus: HEK293 HiBiT in vitro degradation of IKZF1. The class given is cell-based. Particulars: for DC50 / IKZF1 Dmax: HEK293 HiBiT; for DC50: 18-24 hr incubation, normalized to DMSO control, read-out: IKZF1 EC50; for Dmax: HEK293, HEK293 HiBiT; for Dmax / IKZF1 Dmax: maximum degradation at the highest concentration tested. Here is the method: (§1) In vitro degradation of IKZF1, IKZF2, and SALL4 was measured using HiBiT protein tagging and detection technology (Promega).
(§2) HiBit technology was used to develop the quantitative assays to measure the cellular IKZFs level by tagging an 11 amino acid HiBit peptides […] to the protein of interest. Reporter plasmids were generated by fusing a linker sequence ([…]) followed by the HiBit tag at the C-terminus of IKZF1, IKZF2, and SALL4. The fusion fragments were subsequently cloned into pcDNA5 pcDNA™5/FRT/TO plasmids (Thermo Fisher, cat #V652020) downstream of the tetracycline operator. The resulting plasmids were co-transfected with pOG44 Flp-Recombinase Expression Vector (Thermo Fisher, cat #V600520) into Flp-In™ T-REx HEK293 line (Thermo Fisher, cat #R78077) and a stable cell pool was selected by adding 100 µg/ml of Hygromycin (Thermo Fisher, cat #10687010). The reporter cell enabled Tet-On inducible reporter expression from a single copy of the integrated gene.
(§3) On Day 1, Cells were grown to ˜80% confluency in tissue culture medium (DMEM Glutamax (Gibco10569), 10% Tet free FBS (Takara 631106), and PenStrep Glutamin (Gibco 10378)) in tissue culture flasks. Doxycycline was then added to a final concentration of […] to induce reporter expression at 37° C. overnight.
(§4) On Day 2, 125 nL of serially-diluted solution of testing compounds were dispensed into 384-well white solid assay plates via ECHO acoustic liquid handler. Cells were lifted by 0.25% Trypsin (Gibco 25200) then pelleted by centrifugation (Beckman Avanti J-E) at 500×g for 5 min. Cell pellets were resuspended in TC medium at the concentration of 3e5/mL and 25 μL of cell suspension were added into each well of compound-spotted plates. The plates were returned to a 37° C. incubator overnight (18-24 hr).
(§5) On Day 3, assay plates were removed from the tissue culture incubator and 25 μL of Nano-Glo lytic detection system (Promega, cat #N3030) was added to each well. Plates were incubated at r.t. for 3 min with shaking, and luminescence was read using an Envision reader (Perkin Elmer).
(§6) To assess the IKZF1, IKZF2, and SALL4 degrader potential of exemplified compounds of this disclosure and certain Reference Compounds EC50 and Dmax values were determined for the compounds of Examples 1 to 383 and Reference Compounds A-1, B-1, B-2, B-3, B-4, and C-1 in the HiBiT assays. Asterisks (*) indicate examples for which the data shown represents an average of n≥3.

The target of a further experiment is IKZF2 (Homo sapiens, UniProt Q96SW2+Q9UKS7). The experiment is described as follows: HEK293 HiBiT in vitro degradation of IKZF2. The format is cell-based. Particulars: for Dmax: HEK293, HEK293 HiBiT; for Dmax / IKZF2 Dmax: maximum degradation at the highest concentration tested; for DC50 / IKZF2 Dmax: HEK293 HiBiT; for DC50: 18-24 hr incubation, normalized to DMSO control, read-out: IKZF2 EC50. More on the design: expressed in transfected cells. Here is the method: as §1, §2, §3, §4, §5, §6
Sequence of IKZF2 (Q9UKS7 1-500 isoform Q9UKS7-2): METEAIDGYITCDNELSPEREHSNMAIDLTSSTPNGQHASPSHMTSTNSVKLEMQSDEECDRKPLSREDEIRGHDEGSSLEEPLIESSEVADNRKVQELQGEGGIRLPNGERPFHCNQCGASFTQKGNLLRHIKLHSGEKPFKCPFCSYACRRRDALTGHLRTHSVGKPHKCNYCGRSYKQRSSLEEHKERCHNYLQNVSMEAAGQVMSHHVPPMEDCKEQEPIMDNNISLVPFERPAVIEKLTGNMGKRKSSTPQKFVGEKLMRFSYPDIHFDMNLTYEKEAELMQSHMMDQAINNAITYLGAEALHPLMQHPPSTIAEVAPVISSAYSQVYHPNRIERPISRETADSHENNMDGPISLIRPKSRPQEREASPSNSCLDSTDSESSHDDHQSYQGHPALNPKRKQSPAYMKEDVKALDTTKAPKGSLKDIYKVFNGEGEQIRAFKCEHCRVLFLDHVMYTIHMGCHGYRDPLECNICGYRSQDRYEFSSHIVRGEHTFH
Sequence of IKZF2 (Q96SW2 whole entry): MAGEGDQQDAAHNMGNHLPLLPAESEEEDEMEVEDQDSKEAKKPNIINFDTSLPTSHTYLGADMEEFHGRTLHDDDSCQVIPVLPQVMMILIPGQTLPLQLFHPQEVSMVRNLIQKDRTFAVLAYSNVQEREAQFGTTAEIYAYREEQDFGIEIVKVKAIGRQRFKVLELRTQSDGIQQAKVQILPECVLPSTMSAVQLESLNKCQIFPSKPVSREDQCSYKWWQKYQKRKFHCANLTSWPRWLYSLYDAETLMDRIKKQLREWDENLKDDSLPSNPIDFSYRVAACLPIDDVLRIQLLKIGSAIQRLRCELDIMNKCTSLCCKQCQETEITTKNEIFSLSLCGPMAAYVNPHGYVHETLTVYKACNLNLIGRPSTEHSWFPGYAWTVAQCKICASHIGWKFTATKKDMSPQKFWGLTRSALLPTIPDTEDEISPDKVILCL
Sequence of IKZF2 (Q16531 whole entry partner): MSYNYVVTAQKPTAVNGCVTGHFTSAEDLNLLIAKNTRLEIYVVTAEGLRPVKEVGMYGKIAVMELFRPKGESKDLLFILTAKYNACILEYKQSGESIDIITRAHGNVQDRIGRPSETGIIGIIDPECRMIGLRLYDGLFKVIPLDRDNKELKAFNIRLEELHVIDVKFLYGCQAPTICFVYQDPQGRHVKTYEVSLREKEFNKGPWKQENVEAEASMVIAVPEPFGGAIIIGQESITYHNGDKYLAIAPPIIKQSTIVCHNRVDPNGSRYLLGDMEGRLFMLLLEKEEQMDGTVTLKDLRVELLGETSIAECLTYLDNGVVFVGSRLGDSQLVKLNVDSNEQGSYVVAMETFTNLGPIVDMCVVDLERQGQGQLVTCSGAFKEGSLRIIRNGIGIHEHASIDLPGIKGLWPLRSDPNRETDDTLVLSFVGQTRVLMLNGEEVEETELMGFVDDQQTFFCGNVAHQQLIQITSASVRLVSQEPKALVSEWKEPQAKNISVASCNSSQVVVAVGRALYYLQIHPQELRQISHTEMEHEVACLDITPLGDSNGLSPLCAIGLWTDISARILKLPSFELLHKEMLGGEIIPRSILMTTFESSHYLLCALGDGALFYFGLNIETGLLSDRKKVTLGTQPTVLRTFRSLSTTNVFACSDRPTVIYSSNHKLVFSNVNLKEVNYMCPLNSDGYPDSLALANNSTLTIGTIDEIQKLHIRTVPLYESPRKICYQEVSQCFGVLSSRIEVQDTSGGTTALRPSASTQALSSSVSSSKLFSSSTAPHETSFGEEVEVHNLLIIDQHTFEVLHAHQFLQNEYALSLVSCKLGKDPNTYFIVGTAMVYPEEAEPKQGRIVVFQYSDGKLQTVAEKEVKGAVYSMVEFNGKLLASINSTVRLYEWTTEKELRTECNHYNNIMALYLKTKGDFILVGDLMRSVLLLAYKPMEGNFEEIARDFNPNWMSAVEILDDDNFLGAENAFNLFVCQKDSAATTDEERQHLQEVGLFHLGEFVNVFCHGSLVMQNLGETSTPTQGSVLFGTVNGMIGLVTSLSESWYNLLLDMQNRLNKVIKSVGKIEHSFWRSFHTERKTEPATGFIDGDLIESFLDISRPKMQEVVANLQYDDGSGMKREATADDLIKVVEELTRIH

T1 sequence (Q13422 whole entry): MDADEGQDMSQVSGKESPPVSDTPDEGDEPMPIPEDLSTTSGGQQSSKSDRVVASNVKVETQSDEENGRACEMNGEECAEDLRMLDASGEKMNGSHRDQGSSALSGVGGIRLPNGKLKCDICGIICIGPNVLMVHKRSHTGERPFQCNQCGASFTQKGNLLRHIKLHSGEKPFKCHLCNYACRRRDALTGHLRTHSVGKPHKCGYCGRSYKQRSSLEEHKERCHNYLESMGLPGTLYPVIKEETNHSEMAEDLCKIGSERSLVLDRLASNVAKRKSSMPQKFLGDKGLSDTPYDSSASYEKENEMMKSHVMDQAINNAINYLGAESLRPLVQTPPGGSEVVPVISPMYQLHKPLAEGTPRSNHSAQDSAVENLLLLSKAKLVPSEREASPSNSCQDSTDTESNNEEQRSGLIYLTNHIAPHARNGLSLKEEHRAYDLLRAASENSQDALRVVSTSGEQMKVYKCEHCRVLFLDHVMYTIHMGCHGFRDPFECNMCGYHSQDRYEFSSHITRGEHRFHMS
T1 sequence (Q96SW2 whole entry): as the sequence (Q96SW2 whole entry) above
T1 sequence (Q16531 whole entry partner): as the sequence (Q16531 whole entry partner) above

For `CN(Cc1ccccc1)[C@H]1CCCC[C@@H]1Cc1ccc2c(c1)CN(C1CCC(=O)NC1=O)C2=O` (stereo partly drawn) [Example 21, 3-(5-(((1R,2S)-2-(benzyl(methyl)amino)cyclohexyl)methyl)-1-oxoisoindolin-2-yl)piperidine-2,6-dione], the DC50 on IKZF1 was over 1000 nM. Moreover, on IKZF2, the Dmax turned out to be 49% and the DC50 is 409 nM.
Turning to `O=C1CCC(N2Cc3cc(C[C@H]4CCCC[C@@H]4NCc4ccccn4)ccc3C2=O)C(=O)N1` (stereo partly drawn) [Example 45, 3-(1-oxo-5-(((1R,2S)-2-((pyridin-2-ylmethyl)amino)cyclohexyl)methyl)isoindolin-2-yl)piperidine-2,6-dione], the DC50 at IKZF1 is over 1000 nM. At IKZF2, the Dmax turned out to be 71% and the DC50 is 131 nM.
Turning to `CC(N[C@H]1CCCC[C@@H]1Cc1ccc2c(c1)CN(C1CCC(=O)NC1=O)C2=O)C(C)(C)F` (single isomer, unassigned) [Example 226], the figures for the Dmax at IKZF1 and on IKZF2 were 84% and 93%, respectively. Also, the DC50 was found to be 17 nM at IKZF1 and 14 nM at IKZF2.
`C[C@H](N[C@H]1CCCC[C@@H]1Cc1ccc2c(c1)CN(C1CCC(=O)NC1=O)C2=O)c1ccccc1` (stereo partly drawn) [Example 66, 3-(1-oxo-5-(((1R,2S)-2-(((S)-1-phenylethyl)amino)cyclohexyl)methyl)isoindolin-2-yl)piperidine-2,6-dione]: the DC50 on IKZF1 is over 1000 nM. At IKZF2, the Dmax stood at 89% and the DC50 stood at 17 nM.
In the case of `Cn1nccc1CN[C@H]1CCCC[C@@H]1Cc1ccc2c(c1)CN(C1CCC(=O)NC1=O)C2=O` (stereo partly drawn) [Example 39, 3-(5-(((1R,2S)-2-(((1-methyl-1H-pyrazol-5-yl)methyl)amino)cyclohexyl)methyl)-1-oxoisoindolin-2-yl)piperidine-2,6-dione], the Dmax on IKZF1 is 34%; on IKZF2 it was 86%. In addition, the DC50 on IKZF1 was 265 nM; at IKZF2, 47 nM.
Regarding `O=C1CCC(N2Cc3cc(C[C@H]4CC[C@@H](F)C[C@@H]4NC4CCC(F)(F)CC4)ccc3C2=O)C(=O)N1` (stereo partly shown) [Example 354], on IKZF1, the Dmax was 32% and the DC50 is 30 nM. Further, on IKZF2, the Dmax is 93% and the DC50 is 3 nM.
For the compound `CC1(C)CCCC(N[C@H]2CCCC[C@@H]2Cc2ccc3c(c2)CN(C2CCC(=O)NC2=O)C3=O)C1` (single isomer, unassigned) [Example 276], on IKZF1, the DC50 was over 1000 nM. For the same compound, on IKZF2, the DC50 came out at 3 nM and the “IKZF2 Dmax” value was determined as 97%.
With `O=C1CCC(N2Cc3cc(C[C@H]4CCCC[C@@H]4N4CC(OCc5ccccc5)C4)ccc3C2=O)C(=O)N1` (stereo partly drawn) [Example 33, 3-(5-(((1R,2S)-2-(3-(benzyloxy)azetidin-1-yl)cyclohexyl)methyl)-1-oxoisoindolin-2-yl)piperidine-2,6-dione], the DC50 on IKZF1 is over 1000 nM. Moreover, at IKZF2, the Dmax worked out at 82% and the DC50 stood at 18 nM.
Regarding `O=C1CCC(N2Cc3c(ccc(C[C@H]4CCCC[C@@H]4NCC4COC4)c3F)C2=O)C(=O)N1` (stereo partly shown) [Example 186], at IKZF1, the DC50 came out at 88 nM and the “IKZF1 Dmax” value was determined as 28%. Moreover, at IKZF2, the DC50 worked out at 8 nM and the “IKZF2 Dmax” value came to 98%.
Consider `O=C1CCC(N2Cc3cc(C[C@H]4CCCC[C@@H]4NC4CCCC[C@@H]4F)ccc3C2=O)C(=O)N1` (stereo partly shown) [Example 105], for which, on IKZF1, the maximal degradation (Dmax) is 31% and the DC50 amounted to 76 nM. At IKZF2, the Dmax turned out to be 96% and the DC50 is 4 nM.
Regarding `O=C1CCC(N2Cc3cc(C[C@H]4CCCC[C@@H]4NCc4c(F)cccc4F)ccc3C2=O)C(=O)N1` (stereo partly drawn) [Example 18, 3-(5-(((1R,2S)-2-((2,6-difluorobenzyl)amino)cyclohexyl)methyl)-1-oxoisoindolin-2-yl)piperidine-2,6-dione], the DC50 was over 1000 nM on IKZF1 and 42 nM on IKZF2. In addition, at IKZF2, the Dmax was found to be 89%.
For `O=C1CCC(N2Cc3cc(C[C@H]4CCCC[C@@H]4NC4CCC(OC(F)(F)F)CC4)ccc3C2=O)C(=O)N1` (single isomer, unassigned) [Example 146], at IKZF1, the DC50 stood at 168 nM and the “IKZF1 Dmax” value is listed as 34%. Besides, on IKZF2, the DC50 came to 2 nM and the “IKZF2 Dmax” value came to 95%.
With `O=C1CCC(N2Cc3cc(C[C@H]4CCCC[C@@H]4N4CC(OCC5CC5)C4)ccc3C2=O)C(=O)N1` (stereo partly drawn) [Example 67, 3-(5-(((1R,2S)-2-(3-(cyclopropylmethoxy)azetidin-1-yl)cyclohexyl)methyl)-1-oxo-isoindolin-2-yl)piperidine-2,6-dione], the DC50 on IKZF1 is over 1000 nM. In addition, at IKZF2, the Dmax was determined as 74% and the DC50 was 30 nM.
For `O=C1CCC(N2Cc3cc(C[C@H]4CCCC[C@@H]4NC4CCc5ccccc54)ccc3C2=O)C(=O)N1` (stereo partly shown) [Example 131], the Dmax at IKZF1 is 45%; on IKZF2, 96%. For the same compound, the results for the DC50 at IKZF1 and at IKZF2 were 78 nM and 4 nM, respectively.
In the case of `CC(N[C@H]1CCCC[C@@H]1Cc1ccc2c(c1)CN(C1CCC(=O)NC1=O)C2=O)C(F)F` (stereo partly shown) [Example 130], the DC50 on IKZF1 was over 1000 nM; at IKZF2, 148 nM. Besides, the Dmax at IKZF2 came out at 76%.
The matching figures for `CCOCC(C)N[C@H]1CCCC[C@@H]1Cc1ccc2c(c1)CN(C1CCC(=O)NC1=O)C2=O` (stereo partly shown) [Example 78]: over 1000 nM, 16 nM and 92%.
For the compound `CC(CC1CC1)N[C@H]1CCCC[C@@H]1Cc1ccc2c(c1)CN(C1CCC(=O)NC1=O)C2=O` (single isomer, unassigned) [Example 231], the DC50 on IKZF1 was over 1000 nM. In addition, on IKZF2, the DC50 worked out at 3 nM and the “IKZF2 Dmax” value is on record as 96%.
For the compound `O=C1CCC(N2Cc3cc(C[C@H]4CC(CO)CC[C@@H]4NC4CCCCC4)ccc3C2=O)C(=O)N1` (single isomer, unassigned) [Example 383], the DC50 at IKZF1 was over 1000 nM. Besides, at IKZF2, the DC50 came out at 226 nM and the “IKZF2 Dmax” value amounted to 77%.
On to `CC(N[C@H]1CCCC[C@@H]1Cc1ccc2c(c1)CN(C1CCC(=O)NC1=O)C2=O)C1CCCC1` (stereo partly shown) [Example 201], for which the DC50 on IKZF1 was over 1000 nM. For the same compound, on IKZF2, the Dmax is 96% and the DC50 amounted to 7 nM.
Consider `O=C1CCC(N2Cc3c(ccc(C[C@H]4OCCC[C@@H]4NCC4CC(F)(F)C4)c3F)C2=O)C(=O)N1` (stereo partly shown) [Example 150], for which the DC50 at IKZF1 was over 500 nM. In addition, at IKZF2, the Dmax was 73% and the DC50 was determined as 51 nM.
As for `O=C1CCC(N2Cc3c(ccc(C[C@H]4CCCC[C@@H]4NCC4CCOCC4)c3F)C2=O)C(=O)N1` (stereo partly shown) [Example 187], on IKZF1, the DC50 was determined as 78 nM and the “IKZF1 Dmax” value is reported as 37%. In addition, on IKZF2, the DC50 came to 8 nM and the “IKZF2 Dmax” value amounted to 96%.
For `COC1CCC(N[C@H]2CCCC[C@@H]2Cc2ccc3c(c2)CN(C2CCC(=O)NC2=O)C3=O)CC1` (single isomer, unassigned) [Example 278] the same measures were 125 nM, 37%, 4 nM and 98%.
Consider `O=C1CCC(N2Cc3cc(C[C@H]4CCCC[C@@H]4NC4CC5CCC(C4)O5)ccc3C2=O)C(=O)N1` (stereo partly shown) [Example 184], for which, at IKZF1, the DC50 came out at 56 nM and the “IKZF1 Dmax” value came out at 30%. In addition, on IKZF2, the DC50 was 3 nM and the “IKZF2 Dmax” value is reported as 97%.
Take `CC(C)(C)CCN(CCC(C)(C)C)[C@H]1CCCC[C@@H]1Cc1ccc2c(c1F)CN(C1CCC(=O)NC1=O)C2=O` (stereo partly drawn) [Example 90, 3-(5-(((1R,2S)-2-(bis(3,3-dimethylbutyl)amino)cyclohexyl)methyl)-4-fluoro-1-oxoisoindolin-2-yl)piperidine-2,6-dione]: the DC50 on IKZF1 is over 1000 nM. On IKZF2, the Dmax was 75% and the DC50 amounted to 69 nM.
In the case of `CS(=O)(=O)c1ccc(CN[C@H]2CCCC[C@@H]2Cc2ccc3c(c2)CN(C2CCC(=O)NC2=O)C3=O)cc1` (stereo partly drawn) [Example 12, 3-(5-(((1R,2S)-2-((4-(methylsulfonyl)benzyl)amino)cyclohexyl)methyl)-1-oxoisoindolin-2-yl)piperidine-2,6-dione], the DC50 at IKZF1 is over 1000 nM. Moreover, on IKZF2, the Dmax was 85% and the DC50 was determined as 106 nM.
